Tests used:
[1] = Water solubility; assay type: physicochemical
[2] = system: mouse tumor; experiment: In vivo PAT of mouse tumor after intratumoral injection
Method: In vivo experiments were carried with mouse tumor model. Six to eight week old BALB/c nude mice (CAnN.Cg-Foxn1nu/Crl) were purchased from Charles River and acclimated for 7 to 10 days. Supplemental estrogen (2 μg of 17β-estradiol valerate/week) was placed subcutaneously at least 1 week prior to tumor implantation. Mice were subcutaneously inoculated with 2×10^7 BT474 cells on the abdominal wall. Experiments were conducted 7-10 days following implantation, after the tumors had reached approximately 10 mm in size.
A volume of 30 μL of nanoparticle suspension (10 mg/mL for PHF and 0.45 mg/mL for CP-0.25) was injected into the mouse tumor. The mouse was placed in the water tank on an inclined plane with its head above the water surface. The PAT instrumentation for in vivo experiments was similar to that described for in vitro experiments, except that acoustic signals were collected over 300° range, giving a total of 100 measurements for each trial. PAT images of mouse tumor were obtained before and after injecting nanoparticles.

## Polyhydroxy fullerenes [PHF]
[1]
  water solubility: water-soluble
[2]; mouse tumor (BT474, BALB/c nude mice), intratumoral injection of 30 μL of 10 mg/mL, before vs after
  PAT signal in the region of the tumor after injection: large increase in PAT signal
[2]; mouse tumor, 30 μL intratumoral, 10 mg/mL for PHF and 0.45 mg/mL for CP-0.25
  contrast with the tumor and surrounding non-tumoral tissue in vivo using PAT: excellent contrast

Source: US8883124B2, “Use of fullerenes in photoacoustic imaging” (University of Florida Research Foundation, Inc., priority 2007, dated 2014)
